Measured values: patent US20240325370A1, “THERAPEUTIC REGIMENS OF A DEGRADER OF BRD9” (FOGHORN THERAPEUTICS INC., priority 2021, published 2024)
“Also recorded” adds a separate entry of the source. Where two headings read alike, the source gives them in different places.

How the values were obtained:
[1] = Interconversion between Enantiomer 1 and Enantiomer 2 in cell medium; assay type: physicochemical; settings: Enantiomer 2 dosing, cell medium 37° C.; for Mean peak area ratio of Enantiomer 1 over Enantiomer 2 peak area ratio: 0.2 µM
Method: For the assessment of interconversion between Enantiomer 1 and Enantiomer 2 in cell medium, the following test was performed. […] At designated time point, aliquot (50 μL) was taken and processed by the addition of 150 μL of acetonitrile containing 0.1% formic acid and internal standard for LC/MS-MS analysis. Peak areas of both Enantiomer 1 and Enantiomer 2 were determined for each sample using a chiral specific analytical method.

BRD9 [2] = target: T1, BRD9 (Homo sapiens, UniProt Q9H8M2); test: BRD9 degradation by western blot in synovial sarcoma cells (SYO-1, ASKA); assay type: cell-based; settings: for DC50: read-out: Fitted DC50
T1 sequence (Q9H8M2 1-597): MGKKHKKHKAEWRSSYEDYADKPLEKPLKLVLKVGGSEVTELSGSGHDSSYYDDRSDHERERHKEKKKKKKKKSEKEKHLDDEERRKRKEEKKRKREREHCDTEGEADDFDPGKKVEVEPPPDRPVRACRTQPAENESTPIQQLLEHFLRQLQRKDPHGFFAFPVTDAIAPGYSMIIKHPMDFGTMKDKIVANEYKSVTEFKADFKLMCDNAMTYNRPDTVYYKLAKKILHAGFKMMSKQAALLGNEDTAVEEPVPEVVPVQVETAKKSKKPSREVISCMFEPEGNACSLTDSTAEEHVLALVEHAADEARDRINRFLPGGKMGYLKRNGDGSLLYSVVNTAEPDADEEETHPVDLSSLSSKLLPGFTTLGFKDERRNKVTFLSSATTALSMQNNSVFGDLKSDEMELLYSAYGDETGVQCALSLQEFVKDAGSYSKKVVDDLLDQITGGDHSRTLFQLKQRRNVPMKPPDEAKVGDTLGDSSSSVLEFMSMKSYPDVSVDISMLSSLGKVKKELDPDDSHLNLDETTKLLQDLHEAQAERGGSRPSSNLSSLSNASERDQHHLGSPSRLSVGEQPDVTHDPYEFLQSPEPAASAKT
Method: Method. Synovial sarcoma cells were plated in 6-well plate at […] cells/well and treated with serial concentrations of BRD9 degrader (10 nM top concentration, diluted 1:3) the next day for two time points at 37° C. Cells were then harvested, washed with cold PBS, and frozen in cell pellets at −80° C. Lysates were prepared by resuspending thawed pellets in 1×RIPA Lysis and Extraction buffer (Thermo Fisher, Cat #89900) with 1× Halt™ Protease and Phosphatase Inhibitor Cocktail, EDTA-free (Thermo Fisher, Cat #78441) and 1:1000 dilution Pierce™ Universal Nuclease for Cell Lysis 25ku (Thermo Fisher, Cat #88700). Lysates were incubated on ice for 10 minutes and then centrifuged in 4° C. at maximum speed (15,000 rpm) for 10 minutes. Samples were then analyzed for total protein using BCA protein quantification assay and diluted to 1 ug/μL with lysis buffer and 1× NuPAGE™ LDS Sample Buffer (4×) (Thermo Fisher, Cat #NP0007) and 1×DTT from 30× stock (Cell Signaling Technologies, Cat #14265S). Samples with 20-25 ug of total protein were loaded into 4-12% Bis-Tris Mini-Gel with 1×MES Running buffer and run at 150V for 45 minutes. Gels were transferred using Trans-Blot® Turbo™ Transfer System (semi-dry) at 25V for 10 minutes (High MW setting) on nitrocellulose blots. Blots were blocked in 5% milk in TBST for 1 hour and probed with BRD9 antibody (Bethyl Labs, Cat #A303-781A, 1:750 for SYO1, and Cell Signaling Technologies, Cat #71232S for ASKA) and beta-Actin antibody (Cell Signaling Technologies, Cat #3700, 1:2000) overnight at 4° C. The next day, blots were washed in TBST 3× and probed with 1:5000 IRDye® 680LT Goat anti-Rabbit IgG Secondary Antibody (LICOR, Cat #926-68021) and 1:10000 IRDye® 800CW Goat anti-Mouse IgG Secondary Antibody (LiCOR, Cat #926-32210) in LiCOR Odyssey® Blocking Buffer (TBS) for 1 hour at room temperature. Blots were washed in TBST 3× and scanned at […] wavelength using LiCOR Odyssey® CLx Imaging System. Western blot signal was quantified using same analyses program included in the same machine. BRD9 signal was quantified by normalizing to beta-actin signal and all samples were normalized to DMSO, set as 100% signal.

BRD9 [3] = target: T1, BRD9; test: Drug washout and competition experiments in SYO-1 cells; settings: two washouts, five washes per washout step
Method: Drug Washout and Competition Experiments in SYO-1 Cells.
SYO-1 cells grown in flasks to log phase growth were washed with PBS and dissociated by adding TrypLE™ Express. The collected cells were resuspended in DMEM (high glucose, with GlutaMAX™ supplement) with 10% FBS.
Cells were collected using fresh media and measured for cell number. 1×10^6 cells were harvested for the 24-hour treatment sample and frozen down at −80° C. The remainder of the treated cells were washed five times with 10 ml fresh media, through sequential rounds of resuspension and centrifugation at 1,000 rpm for 5 minutes.
Another 1×10^6 cells were harvested for the 24-hour post-washout sample and frozen down at −80° C. The remainder of the cells were split off evenly into two separate 100 mm petri dishes and resuspended in 10 ml culture medium in each plate.
The remaining cells of each treatment group were washed five times with 10 mL fresh media. Cells were then seeded evenly into 6-well plates in 2 ml fresh media per well. 2 wells were allocated per collection time point.

BRD9 [4] = target: T1, BRD9; test: Tumor BRD9 modulation after each regimen, SYO-1 xenograft (western blot); assay type: in vivo, mice; parameters: from tissue; host or cells: SYO-1 xenograft tumours in BALB/c nude or NOD SCID mice
From the text: The racemate, compound D1, which consists of ˜50% compound S-D1, was utilized in an SYO-1 (a synovial sarcoma xenograft) model to explore if similar efficacy is achievable with an intermittent dosing schedule. Due to technical feasibility and animal-welfare considerations, intraperitoneal (IP) administration was chosen over the IV route. […] Groups of female SYO-1 tumor-bearing NOD SCID mice (n=8/group) were intraperitoneally administered with vehicle or compound D1 for 21 days. Compound D1 was formulated as a suspension in 10% DMSO/40% PEG400/50% deionized water, volume/volume (v/v). […] To determine the level of modulation of BRD9 after each regimen, mice (n=4 mice/time-point) were euthanized and tumor samples were collected at different timepoints post-last dose (Day 21). […] BRD9 levels were assessed at 24, 72 and 168 hours (expected time points of trough plasma concentrations) for QD, BIW, and QW regimens respectively, as indicated in Table 8. Samples were analyzed using Western blot method.

Structure (SMILES)	Mean peak area ratio of Enantiomer 1 over Enantiomer 2 peak area ratio ([1]; 0 h)	Mean peak area ratio of Enantiomer 1 over Enantiomer 2 peak area ratio ([1]; 0.5 h)	Mean peak area ratio of Enantiomer 1 over Enantiomer 2 peak area ratio ([1]; 2 h)	Mean peak area ratio of Enantiomer 1 over Enantiomer 2 peak area ratio ([1]; 6 h)	% Enantiomer 2 ([1]; 0 h) [%]	% Enantiomer 2 ([1]; 0.5 h) [%]	% Enantiomer 2 ([1]; 2 h) [%]	% Enantiomer 2 ([1]; 6 h) [%]	DC50 (BRD9 [2]; ASKA, 0.5 h) [nM]	DC50 (BRD9 [2]; ASKA, 2 h) [nM]	BRD9 degradation compared with racemic parent compound D1 (BRD9 [2]; SYO-1, 1 or 6 hours (FIGS. 16 and 17))	DC50 (BRD9 [2]; SYO-1, 1 h) [nM]	DC50 (BRD9 [2]; SYO-1, 6 h) [nM]	potency in degradation of endogenous BRD9 protein (BRD9 [2]; two synovial sarcoma cell lines, early time point)	BRD9 degradation after second washout (removal of binding competitors) (BRD9 [3])	BRD9 PD effect in tumor at Cmin (BRD9 [4]; 0.35 mg/kg BIW or 0.7 mg/kg QW treatment)	BRD9 depletion in tumor at Cmin (BRD9 [4]; 3.5 mg/kg QW and 0.5 mg/kg QD treated groups)
COc1cc(-c2cn(C)c(=O)c3cnc(N4CCC4)cc23)cc(OC)c1CN1CCC(CN2CCC3(CC2)CN(c2ccc4c(c2)C(=O)N([C@H]2CCC(=O)NC2=O)C4)C3)CC1 (single isomer, unassigned) [Compound S-D1]	0.01	0.06	0.22	0.60	99	95	82	63	0.34	0.012	slightly better	0.092	0.023	much more potent	retention of the BRD9-suppressive activity; also recorded: degraded again	–	–
COc1cc(-c2cn(C)c(=O)c3cnc(N4CCC4)cc23)cc(OC)c1CN1CCC(CN2CCC3(CC2)CN(c2ccc4c(c2)C(=O)N(C2CCC(=O)NC2=O)C4)C3)CC1 (racemic) [Compound D1, 3-[6-(7-[[1-([4-[6-(azetidin-1-yl)-2-methyl-1-oxo-2,7-naphthyridin-4-yl]-2,6-dimethoxyphenyl]methyl)piperidin-4-yl]methyl]-2,7-diazaspiro[3.5]nonan-2-yl)-1-oxo-3H-isoindol-2-yl]piperidine-2,6-dione]	–	–	–	–	–	–	–	–	–	–	–	–	–	–	–	intermediate PD effect	Nearly complete BRD9 depletion
